This passage reports MIC results from DBAASP.

Structures are written as SMILES. ≈ marks a conversion by molar mass, not a printed value.

Test systems include Bacillus subtilis 168; Escherichia coli B; Pseudomonas aeruginosa; Staphylococcus aureus; Bacillus cereus; Escherichia coli; Leuconostoc lactis; Listeria innocua; Micrococcus luteus; Pasteurella multocida; Streptococcus uberis; Acinetobacter baumannii; Escherichia coli UB1005.
What all share (assay): ≥ marks a high value that may be exact or a test limit, other limits are often not marked, values filed in µg/mL are converted to µM
Assay [1] has as its system Escherichia coli DH5alpha.
Assay [2] deals with Micrococcus luteus ATCC 4698.
Assay [3] deals with Staphylococcus aureus ATCC 6538.
The test system of assay [4] is Staphylococcus epidermidis ATCC 12228.
Assay [5] relates to Candida albicans F7-39/IDE99.
Assay [6] relates to Staphylococcus epidermidis.
Assay [7] concerns Bacillus subtilis ATCC 6633.
Assay [8] has as its system Escherichia coli ATCC 25922.
Assay [9] concerns Klebsiella pneumoniae ATCC 10031.
Assay [10] has as its system Micrococcus luteus ATCC 10240.
Assay [11] deals with Pseudomonas aeruginosa ATCC 27853.
Assay [12] has as its system Salmonella enterica subsp. enterica serovar Typhimurium ATCC 14028.
The subject of assay [13] is Shigella dysenteriae ATCC 9752.
Assay [14] concerns Staphylococcus aureus ATCC 6538P.
Assay [15] deals with Staphylococcus aureus TK784.
Assay [16] concerns Salmonella enterica subsp. enterica serovar Typhimurium C77-31.
The subject of assay [17] is Staphylococcus aureus ATCC 25923.
Assay [18] has as its system Staphylococcus aureus ATCC 29213.

Consider `CC(C)C[C@H](NC(=O)[C@H](C)NC(=O)CNC(=O)[C@H](CC(C)C)NC(=O)[C@@H](N)Cc1ccccc1)C(=O)N[C@@H](Cc1ccccc1)C(=O)N[C@@H](CCCCN)C(=O)N[C@@H](C)C(=O)N[C@@H](CC(C)C)C(=O)N[C@@H](CO)C(=O)N[C@@H](CCCCN)C(=O)N[C@@H](CC(C)C)C(=O)N[C@H](C(=O)O)C(C)C` [FLGALFKALSKLV], for which the MIC was no less than 35.5 µM in [1], 4.27 µM (≈ 6 µg/mL) in [2], 7.82 µM (≈ 11 µg/mL) in assay [3] and 12.8 µM (≈ 18 µg/mL) in assay [4].

For `CC(C)C[C@H](NC(=O)[C@H](CC(C)C)NC(=O)[C@H](CCCCN)NC(=O)[C@H](CO)NC(=O)[C@H](CC(C)C)NC(=O)[C@H](C)NC(=O)[C@H](CCCCN)NC(=O)[C@H](Cc1ccccc1)NC(=O)[C@H](CC(C)C)NC(=O)[C@H](C)NC(=O)CNC(=O)[C@@H](NC(=O)[C@@H](N)Cc1ccccc1)C(C)C)C(=O)O` [FVGALFKALSKLL], the MIC in assay [1] was no less than 35.5 µM; in [2] it was 4.27 µM (≈ 6 µg/mL); in assay [3], 8.53 µM (≈ 12 µg/mL); in assay [4], 15.6 µM (≈ 22 µg/mL).

For `CC(C)C[C@H](NC(=O)[C@@H](NC(=O)[C@H](CCCCN)NC(=O)[C@H](CCCCN)NC(=O)[C@H](CC(C)C)NC(=O)[C@H](CC(C)C)NC(=O)[C@H](CCCCN)NC(=O)[C@H](CC(C)C)NC(=O)[C@H](C)NC(=O)[C@H](CCCCN)NC(=O)CNC(=O)[C@H](Cc1ccccc1)NC(=O)CN)C(C)C)C(N)=O` [GFGKALKLLKKVL], the minimum inhibitory concentration (MIC) against Bacillus subtilis 168 was found to be 1.8 µM (≈ 2.54 µg/mL); in assay [5] it was 5 µM (≈ 7.07 µg/mL); in the assay with Escherichia coli B it was 2.5 µM (≈ 3.53 µg/mL); in the assay on Pseudomonas aeruginosa, 10 µM (≈ 14.1 µg/mL); in the assay with Staphylococcus aureus it was 10 µM (≈ 14.1 µg/mL).

Consider `CC[C@H](C)[C@H](NC(=O)[C@@H](NC(=O)CN)C(C)C)C(=O)N[C@@H](CC(=O)O)C(=O)N[C@@H](C)C(=O)N[C@@H](C)C(=O)N[C@@H](CCCCN)C(=O)N[C@@H](CCCCN)C(=O)N[C@H](C(=O)N[C@H](C(=O)N[C@@H](CC(N)=O)C(=O)N[C@H](C(=O)N[C@@H](CC(C)C)C(=O)N[C@@H](C)C(=O)N[C@@H](CC(N)=O)C(=O)N[C@@H](CC(C)C)C(=O)N[C@@H](Cc1ccccc1)C(N)=O)C(C)C)C(C)C)C(C)C` [GVIDAAKKVVNVLANLF], for which the MIC with Bacillus cereus is no less than 56.5 µM; in the assay on Escherichia coli, greater than 56.5 µM; against Leuconostoc lactis, 6.78 µM (≈ 12 µg/mL); against Listeria innocua, no less than 56.5 µM; in the assay on Micrococcus luteus, no less than 56.5 µM; in the assay on Pasteurella multocida it was no less than 56.5 µM. The MIC against Staphylococcus aureus is greater than 56.5 µM; in assay [6], no less than 56.5 µM; against Streptococcus uberis, 28.2 µM (≈ 50 µg/mL).

With `CC(C)C[C@H](NC(=O)[C@H](CC(C)C)NC(=O)[C@H](CCCCN)NC(=O)[C@H](CCCCN)NC(=O)[C@H](CC(C)C)NC(=O)[C@H](Cc1c[nH]c2ccccc12)NC(=O)[C@H](CCCCN)NC(=O)[C@H](CC(C)C)NC(=O)[C@H](CC(C)C)NC(=O)[C@@H](N)CCCCN)C(=O)N[C@@H](CCCCN)C(N)=O` [KLLKWLKKLLK], the minimal inhibitory concentration (MIC) worked out at 1.42 µM (≈ 2 µg/mL) in assay [7]; 1.42 µM (≈ 2 µg/mL) in assay [8]; 1.42 µM (≈ 2 µg/mL) in assay [9]; 1.42 µM (≈ 2 µg/mL) in assay [10]; 5.67 µM (≈ 7.99 µg/mL) in assay [11]; 1.42 µM (≈ 2 µg/mL) in assay [12]. The MIC amounted to 1.42 µM (≈ 2 µg/mL) in assay [13], 1.42 µM (≈ 2 µg/mL) in assay [14], 5.67 µM (≈ 7.99 µg/mL) in [15] and 1.42 µM (≈ 2 µg/mL) in assay [4].

As for `CC(C)C[C@H](NC(=O)[C@H](Cc1c[nH]c2ccccc12)NC(=O)[C@H](CCCCN)NC(=O)[C@H](CC(C)C)NC(=O)[C@H](CC(C)C)NC(=O)[C@H](Cc1c[nH]c2ccccc12)NC(=O)[C@@H](N)CCCCN)C(N)=O` [KWLLKWL], the minimum inhibitory concentration (MIC) in assay [7] is 20.3 µM (≈ 20 µg/mL); in [8] it was 40.6 µM (≈ 40 µg/mL); in assay [9] it was no less than 81.1 µM; in assay [10], no less than 81.1 µM; in [11] it was 81.1 µM (≈ 79.9 µg/mL); in assay [12] it was greater than 81.1 µM. Also, the MIC is no less than 81.1 µM in assay [13], 20.3 µM (≈ 20 µg/mL) in assay [14], no less than 81.1 µM in assay [15] and 81.1 µM (≈ 79.9 µg/mL) in assay [4].

With `CC(C)C[C@H](NC(=O)[C@H](CCCCN)NC(=O)[C@H](Cc1c[nH]c2ccccc12)NC(=O)[C@H](CCCCN)NC(=O)[C@H](CC(C)C)NC(=O)[C@H](CCCCN)NC(=O)[C@H](Cc1c[nH]c2ccccc12)NC(=O)[C@H](CCCCN)NC(=O)[C@H](CC(C)C)NC(=O)[C@H](CCCCN)NC(=O)[C@@H](N)Cc1c[nH]c2ccccc12)C(=O)N[C@@H](CCCCN)C(N)=O` [WKLKWKLKWKLK], the minimum inhibitory concentration (MIC) with Acinetobacter baumannii was 2.83 µM (≈ 4.76 µg/mL); in [8], 4 µM (≈ 6.74 µg/mL); in the assay with Escherichia coli UB1005, 4 µM (≈ 6.74 µg/mL); against Escherichia coli, 2 µM (≈ 3.37 µg/mL); against Pseudomonas aeruginosa, 4 µM (≈ 6.74 µg/mL); in assay [16], 2 µM (≈ 3.37 µg/mL). Moreover, the MIC (in assay [17]; in assay [18]; against Staphylococcus aureus; in assay [4]) was 2 µM (≈ 3.37 µg/mL) in each case.

Regarding `CC(C)C[C@H](NC(=O)[C@@H](N)Cc1c[nH]c2ccccc12)C(=O)N[C@@H](CCCCN)C(=O)N[C@@H](CCCCN)C(=O)N[C@@H](Cc1c[nH]c2ccccc12)C(N)=O` [WLKKW], the minimum inhibitory concentration (MIC) in assay [7] is no less than 105 µM; in [8] it was greater than 105 µM; in assay [9], no less than 105 µM; in [10] it was no less than 105 µM; in assay [11], greater than 105 µM; in assay [12], greater than 105 µM. Further, the MIC in [13] was no less than 105 µM; in [14], no less than 105 µM; in assay [15] it was no less than 105 µM; in assay [4], greater than 105 µM.

For `CC(C)C[C@H](NC(=O)[C@H](CCCN=C(N)N)NC(=O)[C@H](Cc1c[nH]c2ccccc12)NC(=O)[C@H](CCCN=C(N)N)NC(=O)[C@@H](NC(=O)[C@H](CCCCN)NC(=O)[C@H](Cc1c[nH]c2ccccc12)NC(=O)[C@H](CCCN=C(N)N)NC(=O)[C@H](CC(C)C)NC(=O)[C@H](CCCN=C(N)N)NC(=O)[C@@H](N)Cc1c[nH]c2ccccc12)[C@@H](C)O)C(=O)N[C@@H](CCCCN)C(N)=O` [WRLRWKTRWRLK], the minimal inhibitory concentration (MIC) with Acinetobacter baumannii turned out to be 4 µM (≈ 7.14 µg/mL); with Escherichia coli UB1005 it was 2 µM (≈ 3.57 µg/mL); in the assay with Escherichia coli it was 2.83 µM (≈ 5.05 µg/mL); against Pseudomonas aeruginosa it was 8 µM (≈ 14.3 µg/mL); in assay [16] it was 2 µM (≈ 3.57 µg/mL); in [17] it was 2 µM (≈ 3.57 µg/mL). Besides, the MIC against Staphylococcus aureus was 2 µM (≈ 3.57 µg/mL); in assay [4], 4 µM (≈ 7.14 µg/mL).

With `CC(C)C[C@H](NC(=O)[C@H](CCCN=C(N)N)NC(=O)[C@H](Cc1c[nH]c2ccccc12)NC(=O)[C@H](CCCN=C(N)N)NC(=O)[C@H](CC(C)C)NC(=O)[C@H](CCCN=C(N)N)NC(=O)[C@H](Cc1c[nH]c2ccccc12)NC(=O)[C@H](CCCN=C(N)N)NC(=O)[C@H](CC(C)C)NC(=O)[C@H](CCCN=C(N)N)NC(=O)[C@@H](N)Cc1c[nH]c2ccccc12)C(=O)N[C@@H](CCCN=C(N)N)C(N)=O` [WRLRWRLRWRLR], the MIC was 2.83 µM (≈ 5.24 µg/mL) in the assay on Acinetobacter baumannii; 4 µM (≈ 7.41 µg/mL) in [8]; 2 µM (≈ 3.7 µg/mL) with Escherichia coli UB1005; 2 µM (≈ 3.7 µg/mL) in the assay on Escherichia coli; 4 µM (≈ 7.41 µg/mL) with Pseudomonas aeruginosa; 2 µM (≈ 3.7 µg/mL) in assay [16]. Further, the minimal inhibitory concentration (MIC) was found to be 2 µM (≈ 3.7 µg/mL) in [17], 1 µM (≈ 1.85 µg/mL) in [18], 1 µM (≈ 1.85 µg/mL) in the assay on Staphylococcus aureus and 2 µM (≈ 3.7 µg/mL) in assay [4].

Broadly, the MIC is the least concentration at which growth counts as inhibited. A high value points to a need for much substance.
